According to article PMC7897990, “TriTOX: A novel Trichomonas vaginalis assay platform for high-throughput screening of compound libraries” (International Journal for Parasitology: Drugs and Drug …, 2021):
Like-named read-outs stand apart in the source and are kept apart here.

Key:
[1] = tested on: nontumorigenic neonatal foreskin fibroblast (NFF) cell line
[2] = tested on: Trichomonas vaginalis G3 trophozoites; details: for T.vaginalis_Absorbance_Rep1: replicate 1, raw absorbance; for T.vaginalis_Absorbance_Rep2: replicate 2, raw absorbance
[3] = NFF fibroblast screen at 5 µg/mL, A = active, I = inactive
[4] = HTS, parasite screen at 1 µg/mL, replicate 1
[5] = HTS, parasite screen at 1 µg/mL, replicate 2
[6] = NFF_NS1 screen 5 µg/mL, single concentration
[7] = HTS single concentration, parasite screen 1 µg/mL, replicate 1
[8] = HTS single concentration, parasite screen 1 µg/mL, replicate 2
[9] = NFF_NS1 screen at 5 µg/mL, NFF cells
[10] = parasite screen at 1 µg/mL, replicate 1
[11] = parasite screen at 1 µg/mL, replicate 2
[12] = HTS, parasite screen at 1 µg/mL
[13] = replicate 1, parasite screen at 1 µg/mL
[14] = replicate 2, parasite screen at 1 µg/mL
[15] = HTS replicate 1, parasite screen 1 µg/mL
[16] = HTS replicate 2, parasite screen 1 µg/mL

CO[C@H]1/C=C\C=C(\C)C[C@H](C)[C@H](O)[C@H](C)/C=C(C)\C=C(\C)C(=O)O[C@@H]1[C@@H](C)[C@@H](O)[C@H](C)[C@@]1(O)C[C@@H](OC(=O)/C=C/C(=O)O)[C@H](C)[C@@H](C(C)C)O1 [TS 155-2]
NFF_Activity [1, 3]: I (otherwise these were reported as inactive (I))
T.vaginalis_%inb_Rep1 [2, 4]: 71.89%
T.vaginalis_%inb_Rep2 [2, 5]: 89.46%

COc1cc2c(c3oc(=O)c4c(c13)CCOC4=O)[C@@H]1CCO[C@@H]1O2 [BIA-A1235]
NFF_Activity [1, 6]: I (otherwise these were reported as inactive (I))
T.vaginalis_%inb_Rep1 [2, 7]: 12.33%
T.vaginalis_%inb_Rep2 [2, 8]: 13.81%

Cc1cc2nc3c(=O)[nH]c(=O)nc-3n(C[C@H](O)[C@H](O)[C@H](O)CO)c2cc1N(C)C [BIA-R1535]
NFF_Activity [1, 9]: I (otherwise these were reported as inactive (I))
T.vaginalis_%inb_Rep1 [2, 10]: 11.33%
T.vaginalis_%inb_Rep2 [2, 11]: 14.32%

CN(N=O)C(=O)N[C@@H]1[C@@H](O)[C@H](O)[C@@H](CO)O[C@@H]1O [BIA-S1186]
NFF_Activity [1, 9]: I (otherwise these were reported as inactive (I))
T.vaginalis_%inb_Rep1 [2, 10]: 9.02%
T.vaginalis_%inb_Rep2 [2, 11]: 7.62%

CC(=O)O[C@@H]1[C@@H]2O[C@H]2[C@@](C)(O)C(=O)[C@@H](C)C/C=C\[C@H]2[C@H](O)C(C)=C(C)[C@H]3[C@H](Cc4ccccc4)NC(=O)[C@@]123 [Epoxycytochalasin C, 19,20-]
NFF_Activity ([1]; NFF_NS1 screen at 5 µg/mL): I (otherwise these were reported as inactive (I))
T.vaginalis_%inb_Rep1 [2, 4]: 12.33%
T.vaginalis_Absorbance_Rep1 [2, 12]: 0.938
T.vaginalis_%inb_Rep2 [2, 5]: 16.20%
T.vaginalis_Absorbance_Rep2 [2, 12]: 0.844

CC[C@H]1OC(=O)[C@H](C)[C@@H](O[C@H]2C[C@@](C)(OC)[C@@H](O)[C@H](C)O2)[C@H](C)[C@@H](O[C@@H]2O[C@H](C)C[C@H](N(C)C)[C@H]2O)[C@](C)(O)C[C@@H](C)C(=O)[C@H](C)[C@@H](O)[C@]1(C)O [Erythromycin A]
NFF_Activity ([1]; NFF_NS1 screen at 5 µg/mL): I (otherwise these were reported as inactive (I))
T.vaginalis_%inb_Rep1 [2, 4]: 5.27%
T.vaginalis_Absorbance_Rep1 [2, 12]: 0.806
T.vaginalis_%inb_Rep2 [2, 5]: 3.78%
T.vaginalis_Absorbance_Rep2 [2, 12]: 0.694

CC[C@H]1C[C@@H]2CC[C@@H](O2)[C@@H](C)C(=O)O[C@H](CC)C[C@H]2CC[C@H](O2)[C@H](C)C(=O)O[C@@H](CC)C[C@@H]2CC[C@@H](O2)[C@@H](C)C(=O)O[C@H](CC)C[C@H]2CC[C@H](O2)[C@H](C)C(=O)O1 [BIA-T1287]
NFF_Activity [1, 9]: I (otherwise these were reported as inactive (I))
T.vaginalis_%inb_Rep1 [2, 10]: 8.97%
T.vaginalis_%inb_Rep2 [2, 11]: 15.05%

Cc1cc(=O)c(O)cc2c1C[C@@H]1CC(C)(C)/C=C/C[C@@]3(C)Oc4cc(O)c(=O)cc(C)c4C[C@@H]3C[C@@H](O)[C@]1(C)O2 [Eupenifeldin]
NFF_Activity ([1]; NFF_NS1 screen at 5 µg/mL): A (active (A) compounds having >25% inhibitory activity)
T.vaginalis_%inb_Rep1 [2, 4]: 14.05%
T.vaginalis_Absorbance_Rep1 [2, 12]: 0.97
T.vaginalis_%inb_Rep2 [2, 5]: 13.74%
T.vaginalis_Absorbance_Rep2 [2, 12]: 0.81

C/C=C/c1cc2c(c(=O)o1)[C@H](O)[C@@H](O)[C@H](C)O2 [BIA-R1896]
NFF_Activity [1, 9]: I (otherwise these were reported as inactive (I))
T.vaginalis_%inb_Rep1 [2, 10]: 13.39%
T.vaginalis_%inb_Rep2 [2, 11]: 5.58%

COc1cc2c(c3oc(=O)c4c(c13)CCC4=O)[C@@H]1C=CO[C@@H]1O2 [BIA-A1232]
NFF_Activity [1, 6]: I (otherwise these were reported as inactive (I))
T.vaginalis_%inb_Rep1 [2, 7]: 12.06%
T.vaginalis_%inb_Rep2 [2, 8]: 5.64%

COc1cc(-c2ccc(O)cc2)c(OC)c(O)c1-c1ccc(O)cc1 [BIA-T1200]
NFF_Activity [1, 9]: I (otherwise these were reported as inactive (I))
T.vaginalis_%inb_Rep1 [2, 10]: 9.75%
T.vaginalis_%inb_Rep2 [2, 11]: 14.63%

CC[C@H]1OC(=O)[C@H](C)[C@@H](O[C@H]2C[C@@](C)(OC)[C@@H](O)[C@H](C)O2)[C@H](C)[C@@H](O[C@@H]2O[C@H](C)C[C@H](N(C)C)[C@H]2O)[C@](C)(O)C[C@@H](C)CN(C)[C@H](C)[C@@H](O)[C@]1(C)O [BIA-A1312]
NFF_Activity [1, 6]: I (otherwise these were reported as inactive (I))
T.vaginalis_%inb_Rep1 [2, 7]: 6.35%
T.vaginalis_%inb_Rep2 [2, 8]: 11.21%

COc1cc(/C=C/C(=O)O)cc(OC)c1O [BIA-S1730]
NFF_Activity [1, 9]: I (otherwise these were reported as inactive (I))
T.vaginalis_%inb_Rep1 [2, 10]: 9.02%
T.vaginalis_%inb_Rep2 [2, 11]: 14.02%

CO[C@H]1C[C@H](O[C@H]2[C@H](C)O[C@@H](O[C@@H]3/C(C)=C/C[C@@H]4C[C@@H](C[C@]5(CC[C@H](C)[C@@H](C(C)C)O5)O4)OC(=O)[C@@H]4C=C(C)[C@@H](O)[C@H]5OC/C(=C\C=C\[C@@H]3C)[C@]54O)C[C@@H]2OC)O[C@@H](C)[C@@H]1O [BIA-I1117]
NFF_Activity ([1]; NFF cells, screen at 5 µg/mL): I (otherwise these were reported as inactive (I))
T.vaginalis_%inb_Rep1 [2, 13]: 14.71%
T.vaginalis_%inb_Rep2 [2, 14]: 14.82%

COc1cc(C)c2c(OC)cc(=O)oc2c1-c1c(OC)cc(C)c2c(OC)cc(=O)oc12 [BIA-K1634]
NFF_Activity ([1]; NFF cells, screen at 5 µg/mL): I (otherwise these were reported as inactive (I))
T.vaginalis_%inb_Rep1 [2, 13]: 14.30%
T.vaginalis_%inb_Rep2 [2, 14]: 13.02%

O=c1cc(O)c1=O [Moniliformin]
NFF_Activity ([1]; NFF fibroblasts, single concentration 5 µg/mL): I (otherwise these were reported as inactive (I))
T.vaginalis_%inb_Rep1 [2, 15]: 8.57%
T.vaginalis_%inb_Rep2 [2, 16]: 12.25%

CC[C@H](C)[C@H]1O[C@]2(C=C[C@@H]1C)C[C@@H]1C[C@@H](C/C=C(\C)[C@@H](O[C@H]3C[C@H](OC)[C@@H](O[C@H]4C[C@H](OC)[C@H](NC)[C@H](C)O4)[C@H](C)O3)[C@@H](C)/C=C/C=C3\CO[C@@H]4[C@H](O)C(C)=C[C@@H](C(=O)O1)[C@]34O)O2 [Emamectin B1a]
NFF_Activity ([1]; NFF_NS1 screen at 5 µg/mL): A (active (A) compounds having >25% inhibitory activity)
T.vaginalis_%inb_Rep1 [2, 4]: 15.19%
T.vaginalis_Absorbance_Rep1 [2, 12]: 0.991
T.vaginalis_%inb_Rep2 [2, 5]: 5.71%
T.vaginalis_Absorbance_Rep2 [2, 12]: 0.699

O=C1CCCC2C3CC(CN12)C1CC(O)CCN1C3 (centres unmarked) [BIA-H1961]
NFF_Activity ([1]; NFF cells, screen at 5 µg/mL): I (otherwise these were reported as inactive (I))
T.vaginalis_%inb_Rep1 [2, 13]: 9.18%
T.vaginalis_%inb_Rep2 [2, 14]: 14.99%

O=C1C=C2C=C[C@@H]3C[C@@]2(O1)[C@H]1CCCCN31 [BIA-S1947]
NFF_Activity [1, 9]: I (otherwise these were reported as inactive (I))
T.vaginalis_%inb_Rep1 [2, 10]: 7.81%
T.vaginalis_%inb_Rep2 [2, 11]: 10.30%

COC1C=CC=C(C)C(=O)NC2=CC(=O)C=C(C2=O)C(OC)C(C)CC(OC)C(OC)C(C)C=C(C)C1OC(N)=O (centres unmarked) [BIA-H1036]
NFF_Activity ([1]; NFF cells, screen at 5 µg/mL): I (otherwise these were reported as inactive (I))
T.vaginalis_%inb_Rep1 [2, 13]: 12.63%
T.vaginalis_%inb_Rep2 [2, 14]: 12.64%

C=C(C)[C@@H]1CC[C@]2(C(=O)O)CC[C@]3(C)[C@H](CC[C@@H]4[C@@]5(C)CC[C@H](O)C(C)(C)[C@@H]5CC[C@]43C)[C@@H]12 [BIA-B1758]
NFF_Activity [1, 6]: I (otherwise these were reported as inactive (I))
T.vaginalis_%inb_Rep1 [2, 7]: 14.81%
T.vaginalis_%inb_Rep2 [2, 8]: 7.30%

COc1c(O)cc2cc(C)oc(=O)c2c1O [BIA-R1077]
NFF_Activity [1, 9]: I (otherwise these were reported as inactive (I))
T.vaginalis_%inb_Rep1 [2, 10]: 14.76%
T.vaginalis_%inb_Rep2 [2, 11]: 13.92%

O=C(O)c1nccc2c1[nH]c1ccccc12 [BIA-F1943]
NFF_Activity [1, 6]: I (otherwise these were reported as inactive (I))
T.vaginalis_%inb_Rep1 [2, 7]: 8.34%
T.vaginalis_%inb_Rep2 [2, 8]: 10.54%

CCC(C=CC1OC(=O)C=CC1C)=CC(C)CC=CC(C)=CC(C)C(=O)C(C)C(O)C(C)CC(C)=CC(=O)O (centres unmarked) [BIA-L1046]
NFF_Activity ([1]; NFF cells, screen at 5 µg/mL): A (active (A) compounds having >25% inhibitory activity)
T.vaginalis_%inb_Rep1 [2, 13]: 99.95%
T.vaginalis_%inb_Rep2 [2, 14]: 96.86%

CC[C@H]1/C=C/C=C/C[C@@H](C)[C@H](O)[C@@](C)(O)C(=O)[C@@H](C)[C@H](O)[C@@H](C)C(=O)[C@@H](C)[C@H](O)[C@@H](C)/C=C/C(=O)O[C@@H]2[C@H](C)[C@H](CC1)O[C@@]1(O[C@@H](C[C@@H](C)O)[C@@H](C)CC1=O)[C@]2(C)O [Oligomycin E]
NFF_Activity [1]: I (key: active (A) compounds having >25% inhibitory activity; otherwise these were reported as inactive (I))
T.vaginalis_%inb_Rep1 [2, 15]: 14.66%
T.vaginalis_%inb_Rep2 [2, 16]: 15.07%

CCC(C(=O)C(C)C(O)C(C)CCc1ccc(C)c(O)c1C(=O)O)C1OC(CC)(C2CCC(O)(CC)C(C)O2)CC1C (centres unmarked) [BIA-L1533]
NFF_Activity ([1]; NFF cells, screen at 5 µg/mL): I (otherwise these were reported as inactive (I))
T.vaginalis_%inb_Rep1 [2, 13]: 11.71%
T.vaginalis_%inb_Rep2 [2, 14]: 10.90%

C=CC(C)(C)C12CC3C(=O)Nc4ccccc4C(=O)N3C1N(C(C)=O)c1ccccc12 (centres unmarked) [BIA-A1687]
NFF_Activity [1, 6]: I (otherwise these were reported as inactive (I))
T.vaginalis_%inb_Rep1 [2, 7]: 18.36%
T.vaginalis_%inb_Rep2 [2, 8]: 16.20%

OCC1=CC(NC2CC(CO)C(OC3OC(CO)C(O)C(O)C3O)C(O)C2O)C(O)C(O)C1O (centres unmarked) [Validamycin A]
NFF_Activity [1, 3]: I (otherwise these were reported as inactive (I))
T.vaginalis_%inb_Rep1 [2, 4]: 14.26%
T.vaginalis_%inb_Rep2 [2, 5]: 19.07%

COc1cc(O)c2c(c1)C=CCC(O)C(O)C(=O)C=CCC(C)OC2=O (centres unmarked) [BIA-L1160]
NFF_Activity ([1]; NFF cells, screen at 5 µg/mL): I (otherwise these were reported as inactive (I))
T.vaginalis_%inb_Rep1 [2, 13]: 12.27%
T.vaginalis_%inb_Rep2 [2, 14]: 12.76%

COc1ccc([C@@H]2CC(=O)c3c(O)cc(O[C@@H]4O[C@H](CO[C@@H]5O[C@@H](C)[C@H](O)[C@@H](O)[C@H]5O)[C@@H](O)[C@H](O)[C@H]4O)cc3O2)cc1O [BIA-H1766]
NFF_Activity ([1]; NFF cells, screen at 5 µg/mL): I (otherwise these were reported as inactive (I))
T.vaginalis_%inb_Rep1 [2, 13]: 15.42%
T.vaginalis_%inb_Rep2 [2, 14]: 4.23%

COC1=CC(C)=CC(C)C(O)C(C)CC(C)=CC=CC(OC)C(C(C)C(O)C(C)C2(O)CC(OC(=O)C=CC(=O)NC3=C(O)CCC3=O)C(C)C(C(C)C)O2)OC1=O (centres unmarked) [BIA-B1110]
NFF_Activity [1, 6]: I (otherwise these were reported as inactive (I))
T.vaginalis_%inb_Rep1 [2, 7]: 72.75%
T.vaginalis_%inb_Rep2 [2, 8]: 93.35%
